Assays:
[1] = test system: Pyriculaia oryzae; type: in vivo; details: rice, protective, 750 g/ha, evaluation 4 days after inoculation, vs untreated control
[2] = physchem
[3] = test system: Erysiphe graminis f.sp. hordei; assay: Erysiphe test (barley)/protective; type: in vivo; details: protective, 250 g/ha, evaluation 7 days after inoculation, vs untreated control
Procedure: Erysiphe Test (barley)/Protective Solvent: 10 parts by weight of N-methyl-pyrrolidone. Emulsifier: 0.6 part by weight of alkylaryl polyglycol ether. To produce a suitable preparation of active compound, 1 part by weight of active compound is mixed with the stated amounts of solvent and emulsifier, and the concentrate is diluted with water to the desired concentration. To test for protective activity, young plants are sprayed with the preparation of active compound at the stated application rate. After the spray coating has dried on, the plants are dusted with spores of Erysiphe graminis f.sp. hordei.

[4] = logP determination by HPLC (EEC Directive 79/831 Annex V. A8); details: gradient method, acetonitrile/0.1% aqueous phosphoric acid

| SMILES | efficacy [1] | other results |
| --- | --- | --- |
| CNC(=O)/C(=N/OC)c1ccccc1Oc1ncnc(Oc2ccccc2Cl)c1F [Example 1, 2-{2-[6-(2-chlorophenoxy)-5-fluoro-pyrimidine4-yloxy]-phenyl}-2-methoxyimino-N-methylacetamide] | 80% |  |
| CNC(=O)C(=NOC)c1ccccc1Oc1ncnc(Oc2cccc(Cl)c2C)c1F [Example 24] | 80% |  |
| CNC(=O)C(=NOC)c1ccccc1Oc1ncnc(Oc2ccccc2C#N)c1F [Example 4] | 80% |  |
| CCC(=O)Oc1ccccc1Oc1ncnc(Oc2ccccc2C(=NOC)C(=O)NC)c1F [Example 9] | 80% |  |
| CO/N=C(/C(N)=O)c1ccccc1O [Example II-1, 2-(2-hydroxy-phenyl)-2-methoxyimino-acetamide] |  | chromatographic logP [2]: 0.83 |
| CNC(=O)C(=NOC)c1ccccc1Oc1ncnc(Oc2cc(C)ccc2C)c1F [Example 20] | 80% |  |
| CNC(=O)/C(=N/OC)c1ccccc1Oc1ncnc(Oc2ccccc2C)c1F [Example 2, 2-[2-(5-fluoro-6-o-tolyloxy-pyrimidin-4-yloxy)-phenyl]-2-methoxyimino-N-methyl-acetamide] | 80% | efficacy [3]: 100%; chromatographic logP [2]: 3.04 |
| CNC(=O)C(=NOC)c1ccccc1Oc1ncnc(Oc2ccc(C)cc2Cl)c1F [Example 22] | 80% |  |
| C=CCOc1ccccc1Oc1ncnc(Oc2ccccc2C(=NOC)C(=O)NC)c1F [Example 8] | 80% | efficacy [3]: 100% |
| CNC(=O)C(=NOC)c1ccccc1Oc1ncnc(Oc2c(C)cccc2C)c1F [Example 21] | 80% |  |
| CNC(=O)C(=NOC)c1ccccc1Oc1ncnc(Oc2ccc(Cl)cc2Cl)c1F [Example 15] |  | logP [4]: 3.61 |
| CON=C(C(N)=O)c1ccccc1Oc1ncnc(Oc2ccccc2Cl)c1F [Example 10] | 80% |  |

Source: patent US6359133B2, “Halogen pyrimidinyl aryl (thio) ethers as pesticides” (Bayer Aktiengesellschaft, priority 1996, dated 2002)
